Measured values published in US20140309172A1, “ICE INHIBITING COMPOUNDS AND USES THEREOF” (priority 2010, published 2014).

Legend:
[1] = test system: M17 cells carrying empty pcDNA3 vector; assay: Cell viability of M17 cells with pcDNA3 empty vector in the presence of menadione; format: cell-based, human; conditions: low concentrations of menadione, FIG. 8
[2] = test system: M17 cells overexpressing alpha-synuclein; assay: Cell viability of M17 cells overexpressing alpha-synuclein (LIVE/DEAD assay); format: cell-based, human
From the text: Humans have 28 calpain and caspase isozymes—a large but not impossible number to test. RNAi was used to knock down each of these in turn in a neuronal cell culture model of PD. It is a neuroblastoma cell line (BE(2)-M17) carrying a wild-type α-synuclein overexpressing vector. BE(2)-M17 is a clone of the SK-N-BE(2) cell line that was established in November of 1972 from a bone marrow biopsy taken from a child with neuroblastoma. Synuclein on its own is not toxic to these cells, but it is toxic when combined with an oxidative stress agent such as rotenone or menadione. Greater than 90% reduction of mRNA levels for each of the 29 protease genes was routinely achieved, and greater than 50% reduction in protein levels (typically, about 70% reduction) was routinely achieved.
A cell viability assay was performed using LIVE/DEAD (molecular probes) assay according to the manufacture instructions. As summarized in FIG. 10, both RNAi knockdown of caspase-1/ICE and treatment with the caspase-1/ICE inhibitor block synuclein fragment formation in nerve cells and should inhibit synuclein aggregation in neuronal cells derived from one or more mouse models of PD.

[3] = Preliminary tests of blood-brain barrier penetration in animals; format: in vivo

| BBB penetration [3] | SMILES | toxicity to M17 cells carrying empty pcDNA3 vector [1] | toxicity to M17 cells overexpressing a-synuclein ([2]; low concentrations of menadione, FIG. 8) | rescue from alpha-synuclein-induced toxicity (cell viability) ([2]; M17 cells overexpressing alpha-synuclein, FIG. 10) |
| --- | --- | --- | --- | --- |
|  | CC1=CC(=O)c2ccccc2C1=O [menadione] | not toxic | toxic |  |
| low | CC(C)(C)[C@H](NC(=O)c1ccc(N)c(Cl)c1)C(=O)N1CCC[C@H]1C(=O)N[C@H](C#N)CC(=O)O [NCGC00185682] |  |  |  |
| low | CCO[C@@H]1OC(=O)C[C@@H]1NC(=O)[C@@H]1CCCN1C(=O)[C@@H](NC(=O)c1ccc(N)c(Cl)c1)C(C)(C)C [VX-765] |  |  | rescued |
